Columns and labels:
Test in all cases: ScanEDGE kinase panel (DiscoverX)
Format in all cases: binding
PIK3C2B = molecular target: T1, PIK3C2B (Homo sapiens, UniProt O00750); conditions: read-out: % of control activity at 71 nM
T1 construct: T7 phage fusion (most kinases) or DNA tag for qPCR (kinases made in HEK-293); purchased DiscoverX; host or cells: E. coli BL21-derived host (T7 phage) or HEK-293
Experimental: (§1) ScanEDGE kinase assays paneling specificity across a panel of 96 representative kinases were performed by DiscoverX (Fremont, CA). For most assays, kinase-tagged T7 phage strains were grown in parallel in 24-well blocks in an E. coli host derived from the BL21 strain. Bacteria were grown to log phase and infected with T7 phage from frozen stock (MOI=0.4) and incubated with shaking at 32° C. until lysis (90-150 minutes). The lysates were centrifuged (6000×g) and filtered (0.2 μm) to remove cell debris. The remaining kinases were produced in HEK-293 cells and subsequently tagged with DNA for qPCR detection. […] The liganded beads were blocked with excess biotin and washing with blocking buffer (SeaBlock (Pierce), 1% BSA, 0.05% Tween 20, 1 mM DTT) to remove unbound ligand and to reduce non-specific phage binding. […] Test compounds were prepared as 40× stocks in 100% DMSO and directly diluted into the assay. All reactions were performed in polypropylene 384 well plates in a final volume of 40 μl. […] The kinase concentration in the eluates was measured by qPCR.

LKB1 = molecular target: T2, LKB1 (Homo sapiens, UniProt Q15831); conditions: read-out: % of control activity at 71 nM
T2 construct: T7 phage fusion (most kinases) or DNA tag for qPCR (HEK-293-made kinases); purchased DiscoverX; host or cells: E. coli BL21-derived host (T7 phage) or HEK-293
Experimental: as §1

p38-alpha = molecular target: T3, p38-alpha (Homo sapiens, UniProt Q16539); conditions: read-out: % of control activity at 71 nM
T3 construct: T7 phage fusion (most kinases) or DNA tag for qPCR (kinases made in HEK-293); purchased DiscoverX; host or cells: E. coli BL21-derived host (T7 phage) or HEK-293
Experimental: as §1

BRSK1 = molecular target: T4, BRSK1 (Homo sapiens, UniProt Q8TDC3); conditions: read-out: % of control activity at 71 nM
T4 construct: T7 phage fusion (most kinases) or DNA tag for qPCR (HEK-293-made kinases); purchased DiscoverX (Fremont, CA); host or cells: E. coli BL21-derived host (T7 phage) or HEK-293
Experimental: as §1

MARK3 = molecular target: T5, MARK3 (Homo sapiens, UniProt P27448); conditions: read-out: % of control activity at 71 nM
T5 construct: T7 phage fusion (most kinases) or DNA tag for qPCR (HEK-293-made kinases); purchased DiscoverX; host or cells: E. coli BL21-derived host (T7 phage) or HEK-293
Experimental: as §1

IKK-beta = molecular target: T6, IKK-beta (Homo sapiens, UniProt O14920); conditions: read-out: % of control activity at 71 nM
T6 construct: T7 phage fusion (most kinases) or DNA tag for qPCR (HEK-293-made kinases); purchased DiscoverX; host or cells: E. coli BL21-derived host (T7 phage) or HEK-293
Experimental: as §1

ACVR1B = molecular target: T7, ACVR1B (Homo sapiens, UniProt P36896); conditions: read-out: % of control activity at 71 nM
T7 construct: T7 phage fusion (most kinases) or DNA tag for qPCR (HEK-293-made kinases); purchased DiscoverX (Fremont, CA); host or cells: E. coli BL21-derived host (T7 phage) or HEK-293
Experimental: as §1

EGFR = molecular target: T8, EGFR (Homo sapiens, UniProt P00533); conditions: read-out: % of control activity at 71 nM
T8 construct: T7 phage fusion (most kinases) or DNA tag for qPCR (HEK-293-made kinases); purchased DiscoverX (Fremont, CA); host or cells: E. coli BL21-derived host (T7 phage) or HEK-293
Experimental: as §1

SIK (SIK1) = molecular target: T9, SIK (SIK1) (Homo sapiens, UniProt P57059); conditions: SIK refers to SIK1, read-out: % of control activity at 71 nM
T9 construct: T7 phage fusion (most kinases) or DNA tag after HEK-293 expression; purchased DiscoverX (Fremont, CA), ScanEDGE; host or cells: T7 phage in E. coli BL21-derived host, or HEK-293
Experimental: as §1

CDK7 = molecular target: T10, CDK7 (Homo sapiens, UniProt P50613); conditions: read-out: % of control activity at 71 nM
T10 construct: T7 phage fusion (most kinases) or DNA tag for qPCR (HEK-293-made kinases); purchased DiscoverX (Fremont, CA); host or cells: E. coli BL21-derived host (T7 phage) or HEK-293
Experimental: as §1

ZAP70 = molecular target: T11, ZAP70 (Homo sapiens, UniProt P43403); conditions: read-out: % of control activity at 71 nM
T11 construct: T7 phage fusion (most kinases) or DNA tag after HEK-293 expression; purchased DiscoverX (Fremont, CA), ScanEDGE; host or cells: T7 phage in E. coli BL21-derived host, or HEK-293
Experimental: as §1

ERBB2 = molecular target: T12, ERBB2 (Homo sapiens, UniProt P04626); conditions: read-out: % of control activity at 71 nM
T12 construct: T7 phage fusion (most kinases) or DNA tag for qPCR (HEK-293-made kinases); purchased DiscoverX; host or cells: E. coli BL21-derived host (T7 phage) or HEK-293
Experimental: as §1

TYK2 = molecular target: T13, TYK2 (Homo sapiens, UniProt P29597); conditions: read-out: % of control activity at 71 nM
T13 construct: T7 phage fusion (most kinases) or DNA tag after HEK-293 expression; purchased DiscoverX (Fremont, CA), ScanEDGE; host or cells: T7 phage in E. coli BL21-derived host, or HEK-293
Experimental: as §1

CSNK1G2 = molecular target: T14, CSNK1G2 (Homo sapiens, UniProt P78368); conditions: read-out: % of control activity at 71 nM
T14 construct: T7 phage fusion (most kinases) or DNA tag for qPCR (HEK-293-made kinases); purchased DiscoverX (Fremont, CA); host or cells: E. coli BL21-derived host (T7 phage) or HEK-293
Experimental: as §1

p38-beta = molecular target: T15, p38-beta (Homo sapiens, UniProt Q15759); conditions: read-out: % of control activity at 71 nM
T15 construct: T7 phage fusion (most kinases) or DNA tag for qPCR (kinases made in HEK-293); purchased DiscoverX; host or cells: E. coli BL21-derived host (T7 phage) or HEK-293
Experimental: as §1

RIPK2 = molecular target: T16, RIPK2 (Homo sapiens, UniProt O43353); conditions: read-out: % of control activity at 71 nM
T16 construct: T7 phage fusion (most kinases) or DNA tag after HEK-293 expression; purchased DiscoverX (Fremont, CA), ScanEDGE; host or cells: T7 phage in E. coli BL21-derived host, or HEK-293
Experimental: as §1

JNK2 = molecular target: T17, JNK2 (Homo sapiens, UniProt P45984); conditions: read-out: % of control activity at 71 nM
T17 construct: T7 phage fusion (most kinases) or DNA tag for qPCR (HEK-293-made kinases); purchased DiscoverX; host or cells: E. coli BL21-derived host (T7 phage) or HEK-293
Experimental: as §1

MET = molecular target: T18, MET (Homo sapiens, UniProt P08581); conditions: read-out: % of control activity at 71 nM
T18 construct: T7 phage fusion (most kinases) or DNA tag for qPCR (kinases made in HEK-293); purchased DiscoverX; host or cells: E. coli BL21-derived host (T7 phage) or HEK-293
Experimental: as §1

PCTK1 = molecular target: T19, PCTK1 (Homo sapiens, UniProt Q00536); conditions: read-out: % of control activity at 71 nM
T19 construct: T7 phage fusion (most kinases) or DNA tag for qPCR (kinases made in HEK-293); purchased DiscoverX; host or cells: E. coli BL21-derived host (T7 phage) or HEK-293
Experimental: as §1

ROCK2 = molecular target: T20, ROCK2 (Homo sapiens, UniProt O75116); conditions: read-out: % of control activity at 71 nM
T20 construct: T7 phage fusion (most kinases) or DNA tag after HEK-293 expression; purchased DiscoverX (Fremont, CA), ScanEDGE; host or cells: T7 phage in E. coli BL21-derived host, or HEK-293
Experimental: as §1

SRC = molecular target: T21, SRC (Homo sapiens, UniProt P12931); conditions: read-out: % of control activity at 71 nM
T21 construct: T7 phage fusion (most kinases) or DNA tag after HEK-293 expression; purchased DiscoverX (Fremont, CA), ScanEDGE; host or cells: T7 phage in E. coli BL21-derived host, or HEK-293
Experimental: as §1

MELK = molecular target: T22, MELK (Homo sapiens, UniProt Q14680); conditions: read-out: % of control activity at 71 nM
T22 construct: T7 phage fusion (most kinases) or DNA tag for qPCR (kinases made in HEK-293); purchased DiscoverX; host or cells: E. coli BL21-derived host (T7 phage) or HEK-293
Experimental: as §1

ARK5 = molecular target: T23, ARK5 (Homo sapiens, UniProt O60285); conditions: read-out: % of control activity at 71 nM
T23 construct: T7 phage fusion (most kinases) or DNA tag for qPCR (HEK-293-made kinases); purchased DiscoverX (Fremont, CA); host or cells: E. coli BL21-derived host (T7 phage) or HEK-293
Experimental: as §1

KIT = molecular target: T24, KIT (Homo sapiens, UniProt P10721); conditions: read-out: % of control activity at 71 nM
T24 construct: T7 phage fusion (most kinases) or DNA tag for qPCR (HEK-293-made kinases); purchased DiscoverX; host or cells: E. coli BL21-derived host (T7 phage) or HEK-293
Experimental: as §1

FGFR3 = molecular target: T25, FGFR3 (Homo sapiens, UniProt P22607); conditions: read-out: % of control activity at 71 nM
T25 construct: T7 phage fusion (most kinases) or DNA tag for qPCR (HEK-293-made kinases); purchased DiscoverX; host or cells: E. coli BL21-derived host (T7 phage) or HEK-293
Experimental: as §1

FGFR2 = molecular target: T26, FGFR2 (Homo sapiens, UniProt P21802); conditions: read-out: % of control activity at 71 nM
T26 construct: T7 phage fusion (most kinases) or DNA tag for qPCR (HEK-293-made kinases); purchased DiscoverX; host or cells: E. coli BL21-derived host (T7 phage) or HEK-293
Experimental: as §1

AKT1 = molecular target: T27, AKT1 (Homo sapiens, UniProt P31749); conditions: read-out: % of control activity at 71 nM
T27 construct: T7 phage fusion (most kinases) or DNA tag for qPCR (HEK-293-made kinases); purchased DiscoverX (Fremont, CA); host or cells: E. coli BL21-derived host (T7 phage) or HEK-293
Experimental: as §1

MEK1 = molecular target: T28, MEK1 (Homo sapiens, UniProt Q02750); conditions: read-out: % of control activity at 71 nM
T28 construct: T7 phage fusion (most kinases) or DNA tag for qPCR (kinases made in HEK-293); purchased DiscoverX; host or cells: E. coli BL21-derived host (T7 phage) or HEK-293
Experimental: as §1

FAK = molecular target: T29, FAK (Homo sapiens, UniProt Q05397); conditions: read-out: % of control activity at 71 nM
T29 construct: T7 phage fusion (most kinases) or DNA tag for qPCR (HEK-293-made kinases); purchased DiscoverX; host or cells: E. coli BL21-derived host (T7 phage) or HEK-293
Experimental: as §1

PRKCE = molecular target: T30, PRKCE (Homo sapiens, UniProt Q02156); conditions: read-out: % of control activity at 71 nM
T30 construct: T7 phage fusion (most kinases) or DNA tag for qPCR (kinases made in HEK-293); purchased DiscoverX; host or cells: E. coli BL21-derived host (T7 phage) or HEK-293
Experimental: as §1

RIOK2 = molecular target: T31, RIOK2 (Homo sapiens, UniProt Q9BVS4); conditions: read-out: % of control activity at 71 nM
T31 construct: T7 phage fusion (most kinases) or DNA tag after HEK-293 expression; purchased DiscoverX (Fremont, CA), ScanEDGE; host or cells: T7 phage in E. coli BL21-derived host, or HEK-293
Experimental: as §1

YANK3 = molecular target: T32, YANK3 (Homo sapiens, UniProt Q86UX6); conditions: read-out: % of control activity at 71 nM
T32 construct: T7 phage fusion (most kinases) or DNA tag after HEK-293 expression; purchased DiscoverX (Fremont, CA), ScanEDGE; host or cells: T7 phage in E. coli BL21-derived host, or HEK-293
Experimental: as §1

T26 sequence (P21802 22-821): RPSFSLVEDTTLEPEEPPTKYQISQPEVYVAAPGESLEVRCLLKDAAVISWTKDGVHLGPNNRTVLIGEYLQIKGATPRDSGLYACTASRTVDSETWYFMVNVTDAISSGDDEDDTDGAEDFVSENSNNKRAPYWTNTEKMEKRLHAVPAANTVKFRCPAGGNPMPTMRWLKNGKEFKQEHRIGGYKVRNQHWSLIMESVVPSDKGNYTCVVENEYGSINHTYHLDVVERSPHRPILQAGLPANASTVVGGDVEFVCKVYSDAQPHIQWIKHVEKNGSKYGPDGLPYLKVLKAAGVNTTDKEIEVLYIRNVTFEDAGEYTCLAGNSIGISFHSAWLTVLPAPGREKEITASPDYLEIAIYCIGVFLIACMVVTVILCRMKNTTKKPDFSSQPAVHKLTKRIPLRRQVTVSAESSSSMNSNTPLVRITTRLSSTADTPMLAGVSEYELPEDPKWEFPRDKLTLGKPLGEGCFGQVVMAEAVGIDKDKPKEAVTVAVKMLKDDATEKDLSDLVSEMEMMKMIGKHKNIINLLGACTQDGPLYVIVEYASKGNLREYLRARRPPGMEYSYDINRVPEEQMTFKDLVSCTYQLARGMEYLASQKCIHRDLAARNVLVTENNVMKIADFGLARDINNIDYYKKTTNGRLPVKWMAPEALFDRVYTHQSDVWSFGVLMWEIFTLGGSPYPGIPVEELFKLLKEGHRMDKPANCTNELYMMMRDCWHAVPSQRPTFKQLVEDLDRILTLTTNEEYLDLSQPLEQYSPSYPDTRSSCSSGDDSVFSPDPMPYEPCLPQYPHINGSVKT
T8 sequence (P00533 25-1210): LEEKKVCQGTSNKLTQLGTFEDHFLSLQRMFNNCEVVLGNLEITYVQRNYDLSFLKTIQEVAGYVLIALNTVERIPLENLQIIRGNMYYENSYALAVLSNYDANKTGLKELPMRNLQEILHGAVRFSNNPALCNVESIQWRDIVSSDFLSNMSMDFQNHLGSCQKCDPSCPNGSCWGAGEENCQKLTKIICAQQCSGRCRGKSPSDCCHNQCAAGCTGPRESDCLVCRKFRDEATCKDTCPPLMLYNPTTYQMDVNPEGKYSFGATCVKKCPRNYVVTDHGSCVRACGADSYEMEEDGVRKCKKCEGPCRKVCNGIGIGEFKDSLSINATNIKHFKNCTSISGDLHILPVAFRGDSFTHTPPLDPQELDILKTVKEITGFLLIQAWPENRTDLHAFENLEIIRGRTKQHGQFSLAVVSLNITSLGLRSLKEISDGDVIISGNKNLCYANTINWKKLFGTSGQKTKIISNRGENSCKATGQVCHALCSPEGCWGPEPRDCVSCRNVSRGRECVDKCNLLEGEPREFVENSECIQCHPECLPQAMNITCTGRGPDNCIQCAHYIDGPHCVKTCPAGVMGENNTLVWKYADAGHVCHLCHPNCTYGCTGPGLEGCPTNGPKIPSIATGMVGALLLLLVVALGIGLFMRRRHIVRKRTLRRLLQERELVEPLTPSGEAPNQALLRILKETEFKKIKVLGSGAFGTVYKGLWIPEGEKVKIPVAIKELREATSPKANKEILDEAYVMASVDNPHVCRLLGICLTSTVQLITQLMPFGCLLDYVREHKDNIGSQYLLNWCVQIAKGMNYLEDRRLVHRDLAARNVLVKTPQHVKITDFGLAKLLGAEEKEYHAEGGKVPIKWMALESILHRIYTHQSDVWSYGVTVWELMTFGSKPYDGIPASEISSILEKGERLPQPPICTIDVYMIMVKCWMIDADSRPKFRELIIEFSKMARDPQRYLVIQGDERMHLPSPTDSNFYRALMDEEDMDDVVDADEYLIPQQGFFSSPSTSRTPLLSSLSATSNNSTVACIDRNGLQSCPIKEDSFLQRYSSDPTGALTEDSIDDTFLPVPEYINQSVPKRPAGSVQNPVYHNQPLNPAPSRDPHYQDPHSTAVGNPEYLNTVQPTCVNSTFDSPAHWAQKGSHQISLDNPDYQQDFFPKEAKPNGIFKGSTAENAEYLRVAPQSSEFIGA
T28 sequence (Q02750 whole entry, the tested form may be a part): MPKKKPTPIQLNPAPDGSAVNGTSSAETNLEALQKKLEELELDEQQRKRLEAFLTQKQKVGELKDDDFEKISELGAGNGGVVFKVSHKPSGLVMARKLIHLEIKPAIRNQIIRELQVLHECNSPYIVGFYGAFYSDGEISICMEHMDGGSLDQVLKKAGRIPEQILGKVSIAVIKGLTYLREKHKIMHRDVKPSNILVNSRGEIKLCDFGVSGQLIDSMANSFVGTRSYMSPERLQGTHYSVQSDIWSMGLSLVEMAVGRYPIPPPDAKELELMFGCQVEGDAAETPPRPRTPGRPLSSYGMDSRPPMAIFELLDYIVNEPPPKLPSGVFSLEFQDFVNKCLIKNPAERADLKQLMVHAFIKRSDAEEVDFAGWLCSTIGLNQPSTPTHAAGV
T13 sequence (P29597 888-1187 limits assumed): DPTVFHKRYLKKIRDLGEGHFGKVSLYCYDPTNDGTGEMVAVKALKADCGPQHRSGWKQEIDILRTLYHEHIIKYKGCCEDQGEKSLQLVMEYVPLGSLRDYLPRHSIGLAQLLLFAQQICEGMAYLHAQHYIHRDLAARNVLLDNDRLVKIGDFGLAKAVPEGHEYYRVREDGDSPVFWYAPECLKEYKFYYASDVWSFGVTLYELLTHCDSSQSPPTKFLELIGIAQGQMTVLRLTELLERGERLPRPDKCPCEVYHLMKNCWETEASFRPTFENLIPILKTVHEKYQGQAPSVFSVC
T32 sequence (Q86UX6 whole entry, the tested form may be a part): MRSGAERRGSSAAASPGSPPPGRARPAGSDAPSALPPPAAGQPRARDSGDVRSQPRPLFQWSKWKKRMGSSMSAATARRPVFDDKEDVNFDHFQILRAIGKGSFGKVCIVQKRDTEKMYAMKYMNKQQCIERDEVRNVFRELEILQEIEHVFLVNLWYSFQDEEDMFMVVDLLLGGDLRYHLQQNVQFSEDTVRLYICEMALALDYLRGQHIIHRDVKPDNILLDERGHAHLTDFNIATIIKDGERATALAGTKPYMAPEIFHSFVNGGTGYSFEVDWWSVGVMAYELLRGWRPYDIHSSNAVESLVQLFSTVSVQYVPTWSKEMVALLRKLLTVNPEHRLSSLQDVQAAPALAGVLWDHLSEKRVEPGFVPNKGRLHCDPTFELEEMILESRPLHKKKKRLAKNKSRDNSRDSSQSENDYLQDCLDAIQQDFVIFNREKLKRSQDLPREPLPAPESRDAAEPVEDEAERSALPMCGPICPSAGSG
T23 sequence (O60285 whole entry, the tested form may be a part): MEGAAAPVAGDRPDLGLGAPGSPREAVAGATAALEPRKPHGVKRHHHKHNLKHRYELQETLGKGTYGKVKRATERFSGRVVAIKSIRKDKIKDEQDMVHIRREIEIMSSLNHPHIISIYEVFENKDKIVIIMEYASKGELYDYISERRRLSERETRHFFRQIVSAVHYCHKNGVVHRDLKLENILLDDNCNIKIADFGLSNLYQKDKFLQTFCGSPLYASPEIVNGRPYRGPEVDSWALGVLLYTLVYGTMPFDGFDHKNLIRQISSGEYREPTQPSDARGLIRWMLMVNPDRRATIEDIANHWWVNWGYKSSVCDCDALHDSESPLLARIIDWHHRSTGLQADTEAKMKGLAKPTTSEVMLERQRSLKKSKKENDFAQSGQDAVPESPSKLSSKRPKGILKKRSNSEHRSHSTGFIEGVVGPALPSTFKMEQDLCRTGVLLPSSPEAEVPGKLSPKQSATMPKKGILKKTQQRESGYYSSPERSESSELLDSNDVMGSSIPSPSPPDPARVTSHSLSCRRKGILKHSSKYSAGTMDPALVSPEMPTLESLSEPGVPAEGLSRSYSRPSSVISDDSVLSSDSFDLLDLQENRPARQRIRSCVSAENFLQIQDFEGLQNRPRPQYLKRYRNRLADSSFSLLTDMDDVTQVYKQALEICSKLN
T25 sequence (P22607 23-806): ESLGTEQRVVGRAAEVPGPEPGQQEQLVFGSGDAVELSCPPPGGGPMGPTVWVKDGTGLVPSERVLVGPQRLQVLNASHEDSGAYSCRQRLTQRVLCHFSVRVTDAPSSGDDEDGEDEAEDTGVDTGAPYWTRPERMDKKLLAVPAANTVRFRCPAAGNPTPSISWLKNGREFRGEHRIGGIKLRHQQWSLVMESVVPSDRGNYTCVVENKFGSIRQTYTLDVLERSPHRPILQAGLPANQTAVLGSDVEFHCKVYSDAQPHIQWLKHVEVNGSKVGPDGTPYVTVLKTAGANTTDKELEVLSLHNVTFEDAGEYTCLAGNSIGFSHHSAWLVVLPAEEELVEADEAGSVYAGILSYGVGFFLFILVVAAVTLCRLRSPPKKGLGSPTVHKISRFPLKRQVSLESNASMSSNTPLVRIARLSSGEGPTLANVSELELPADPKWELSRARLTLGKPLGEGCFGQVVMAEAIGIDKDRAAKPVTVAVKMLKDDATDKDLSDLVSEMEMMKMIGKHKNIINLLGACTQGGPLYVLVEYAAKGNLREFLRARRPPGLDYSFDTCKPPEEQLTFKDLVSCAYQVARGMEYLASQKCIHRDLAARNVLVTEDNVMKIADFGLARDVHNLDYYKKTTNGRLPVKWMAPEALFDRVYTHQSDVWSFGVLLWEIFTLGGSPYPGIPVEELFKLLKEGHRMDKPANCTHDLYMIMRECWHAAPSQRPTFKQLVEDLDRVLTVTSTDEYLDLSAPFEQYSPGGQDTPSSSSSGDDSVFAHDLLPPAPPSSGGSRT
T10 sequence (P50613 whole entry, the tested form may be a part): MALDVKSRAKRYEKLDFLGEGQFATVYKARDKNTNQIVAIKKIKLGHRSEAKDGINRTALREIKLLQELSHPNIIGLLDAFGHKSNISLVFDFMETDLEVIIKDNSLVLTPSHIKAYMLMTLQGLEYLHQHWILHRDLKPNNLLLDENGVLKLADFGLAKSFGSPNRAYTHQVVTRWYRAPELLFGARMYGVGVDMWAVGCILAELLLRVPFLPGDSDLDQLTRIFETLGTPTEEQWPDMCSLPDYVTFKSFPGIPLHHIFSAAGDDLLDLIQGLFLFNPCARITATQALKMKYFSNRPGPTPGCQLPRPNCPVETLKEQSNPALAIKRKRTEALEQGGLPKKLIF

remaining binding at 0.071 µM (PIK3C2B): 100% | remaining binding at 0.071 µM (LKB1): 85% | remaining binding at 0.071 µM (p38-alpha): 0.95% | remaining binding at 0.071 µM (BRSK1): 74% | remaining binding at 0.071 µM (MARK3): 40% | remaining binding at 0.071 µM (IKK-beta): 84% | remaining binding at 0.071 µM (ACVR1B): 50% | remaining binding at 0.071 µM (EGFR): 5.9% | remaining binding at 0.071 µM (SIK (SIK1)): 0.6% | remaining binding at 0.071 µM (CDK7): 85% | remaining binding at 0.071 µM (ZAP70): 52% | remaining binding at 0.071 µM (ERBB2): 3.5% | remaining binding at 0.071 µM (TYK2): 49% | remaining binding at 0.071 µM (CSNK1G2): 100% | remaining binding at 0.071 µM (p38-beta): 47% | remaining binding at 0.071 µM (RIPK2): 16% | remaining binding at 0.071 µM (JNK2): 89% | remaining binding at 0.071 µM (MET): 92% | remaining binding at 0.071 µM (PCTK1): 91% | remaining binding at 0.071 µM (ROCK2): 70% | remaining binding at 0.071 µM (SRC): 0% | remaining binding at 0.071 µM (MELK): 36% | remaining binding at 0.071 µM (ARK5): 77% | remaining binding at 0.071 µM (KIT): 1.8% | remaining binding at 0.071 µM (FGFR3): 24% | remaining binding at 0.071 µM (FGFR2): 8.9% | remaining binding at 0.071 µM (AKT1): 92% | remaining binding at 0.071 µM (MEK1): 20% | remaining binding at 0.071 µM (FAK): 90% | remaining binding at 0.071 µM (PRKCE): 92% | remaining binding at 0.071 µM (RIOK2): 77% | remaining binding at 0.071 µM (YANK3): 95%
Compound: COc1ccc(N2C(=O)N(c3c(C)cccc3C)Cc3cnc(Nc4ccc(C5CCN(C)CC5)c(OC)c4)nc32)c(OC)c1 [YKL-05-093]

— patent US12121521B2, “Uses of salt-inducible kinase (SIK) inhibitors for treating osteoporosis” (The General Hospital Corporation, priority 2016, dated 2024)
